# Assay results: patent publication US5073562A, “Alkoxy-substituted dihydrobenzopyran-2-carboxylic acids and derivatives thereof” (G. D. Searle & Co., priority 1990, dated 1991)
# pIC50: −log10 of the molar value.
# Key:
# [1] = tested on: Human neutrophils (LTB4 chemotaxis); assay: Modified Boyden Chamber Chemotaxis, LTB4; format: cell-based; parameters: key to Chemotaxis LTB4, inactive at the dose tested: IA: Inactive at the dose tested; conditions: for Relative Potency, Chemotaxis LTB4: potency relative to the compound of Example 1(b), defined as 1.0, 3×10^-8 M LTB4, 40-90 minute, 37° C.
# Method: (§1) Human neutrophils were isolated from citrated peripheral blood using standard techniques of dextran sedimentation, followed by centrifugation on Histopaque® sterile solution (Sigma) or Ficoll-paque® (Pharmacia) and hypotonic lysis of erythrocytes. A final cell suspension of 3.4×10^6 neutrophils/ml of HEPES-buffered Hanks' balanced salt solution (HBSS, pH 7.3) was added to the upper well (0.8 ml) of a modified Boyden chamber (blind well). […] The number of neutrophils migrating into the lower chamber in the absence of chemoattractant was subtracted from the number of cells migrating in the presence of a chemoattractant. Inhibition of chemotaxis by test compounds was expressed as percent inhibition relative to uninhibited control. […] Pat. No. 4,889,871.
# [2] = tested on: Human neutrophils (fMLP chemotaxis); assay: Modified Boyden Chamber Chemotaxis, fMLP; format: cell-based; conditions: for Relative Potency, Chemotaxis fMLP: potency relative to the compound of Example 1(b), defined as 1.0
# Method: as §1
# LTB4 Receptor = biological target: T1, LTB4 Receptor (Homo sapiens, UniProt Q15722); assay: LTB4 Receptor Binding Assay ((3H) LTB4, neutrophils); conditions: potency relative to the compound of Example 1(b), defined as 1.0, 0.6×10^-9 M (3H) LTB4, 0° C., 45 minutes
# T1 construct: Neutrophils were purified from venous blood of normal human donors; endogenous in cells; host or cells: human peripheral blood neutrophils (purity >95%)
# T1 sequence (Q15722 whole entry): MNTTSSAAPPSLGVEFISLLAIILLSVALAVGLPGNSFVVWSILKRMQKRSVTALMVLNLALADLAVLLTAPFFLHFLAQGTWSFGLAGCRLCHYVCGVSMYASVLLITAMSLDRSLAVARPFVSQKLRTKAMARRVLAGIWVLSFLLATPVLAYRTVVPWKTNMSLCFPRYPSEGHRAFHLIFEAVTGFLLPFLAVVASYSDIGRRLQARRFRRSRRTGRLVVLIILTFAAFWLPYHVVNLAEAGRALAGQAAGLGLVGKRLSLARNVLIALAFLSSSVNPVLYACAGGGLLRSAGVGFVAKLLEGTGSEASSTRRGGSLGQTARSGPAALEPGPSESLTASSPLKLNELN
# Method: The incubation was carried out at 0° C. for 45 minutes and terminated by adding 5 ml of ice-cold HBSS followed by rapid filtration of the incubation mixture under vacuum through GF/C glass fiber filters. The filters were further washed with 10 ml HBSS and radioactivity was determined. […] All data refer to specific binding. […] Pat. No. 4,889,871.
SMILES,"pIC50 ([1]; Homo sapiens, Neutrophil, value in parentheses, 3×10^-8 M LTB4)","pIC50 ([2]; Homo sapiens, Neutrophil, value in parentheses)","Relative Potency, LTB4 Receptor Binding (LTB4 Receptor)","Relative Potency, Chemotaxis LTB4 [1]","Relative Potency, Chemotaxis fMLP [2]","Chemotaxis LTB4, inactive at the dose tested ([1]; dose not given, 3×10^-8 M LTB4)"
"CCCc1c(OCCCOc2ccc(C(C)=O)c(OC)c2CCC)ccc2c1OC(C(=O)O)CC2 (centres unmarked) [Example 1(b), 7-[3-(4-acetyl-3-methoxy-2-propylphenoxy)propoxy]-3,4-dihydro-8-propyl-2H-1-benzopyran-2-carboxylic acid, reference compound]",5.74,5.27,–,–,–,–
"CCCc1c(OCCCOc2ccc(-c3cocn3)c(OC)c2CCC)ccc2c1OC(C(=O)O)CC2 (centres unmarked) [Example 5, 3,4-Dihydro-7-[3-[3-methoxy-4-(4-oxazolyl)-2-propylphenoxy]propoxy]-8-propyl-2H-1-benzopyran-2-carboxylic acid]",–,–,4.0,2.2,0.73,–
"CCCc1c(OCCCOc2ccc(-c3c[nH]c(SCc4ccccc4)n3)c(OC)c2CCC)ccc2c1OC(C(=O)O)CC2 (centres unmarked) [Example 8, 3,4-Dihydro-7-[3-[3-methoxy-4-[2-[(phenylmethyl)thio]-1H-imidazol-4-yl]-2-propylphenoxy]propoxy]-8-propyl-2H-1-benzopyran-2-carboxylic acid]",–,–,2.65,1.86,2.0,–
CCCc1c(OCCCOc2ccc(-c3c[nH]cn3)c(OC)c2CCC)ccc2c1OC(C(=O)O)CC2 (centres unmarked) [Example 9],–,–,1.0,0.66,0.45,–
"CCCc1c(OCCCOc2ccc(-c3csc(N)n3)c(OC)c2CCC)ccc2c1OC(C(=O)O)CC2 (centres unmarked) [Example 10, 7-[3-[4-(2-amino-4-thiazolyl)3-methoxy-2propylphenoxy]propoxy]3,4-dihydro-8-propyl-2H-1-benzopyran-2-carboxylic acid]",–,–,1.56,0.63,1.4,–
"CCCc1c(OCCCOc2ccc(-c3cscn3)c(OC)c2CCC)ccc2c1OC(C(=O)O)CC2 (centres unmarked) [Example 12, 3,4-dihydro-7-[3-[3-methoxy-2-propyl-4-(4-thiazolyl)phenoxy]-propoxy]-8-propyl-2H-1-benzopyran-2-carboxylic acid]",–,–,4.5,3.0,1.1,–
"CCCc1c(OCCCOc2ccc(-c3coc(C)n3)c(OC)c2CCC)ccc2c1OC(C(=O)O)CC2 (centres unmarked) [Example 14, 3,4-dihydro-7-[3-[3-methoxy-4-(2-methyl-4-oxazolyl)-2-propylphenoxy]propoxy]-8-propyl-2H-1-benzopyran-2-carboxylic acid]",–,–,0.47,< 0.1,–,–
"C=CCc1c(OCCCOc2ccc3c(c2CCC)OC(C(=O)O)CC3)ccc(-c2cscn2)c1OC (centres unmarked) [Example 17, 3,4-dihydro-7-[3-[3-methoxy-2-(2-propenyl)-4-(4-thiazolyl)-phenoxy]propoxy]-8-propyl-2H-1-benzopyran-2-carboxylic acid]",–,–,11.6,8.3,1.9,–
"CCCc1c(OCCCOc2ccc(-c3csc(OC)n3)c(OC)c2CCC)ccc2c1OC(C(=O)O)CC2 (centres unmarked) [Example 24, 3,4-Dihydro-7-[3-[3-methoxy-4-(2-methoxy-4-thiazolyl)-2-propylphenoxy]propoxy]-8-propyl-2H-1-benzopyran-2-carboxylic acid]",–,–,0.31,< 0.23,–,–
"CCCc1c(OCCCOc2ccc(-c3csc(=S)[nH]3)c(OC)c2CCC)ccc2c1OC(C(=O)O)CC2 (centres unmarked) [Example 26, 3,4-Dihydro-7-[3-[4-(2,3-dihydro-2-thioxo-4-thiazolyl)-3-methoxy-2-propylphenoxy]propoxy]-8-propyl-2H-1-benzopyran-2-carboxylic acid]",–,–,0.51,–,–,–
CCCc1c(OCCCOc2ccc(-c3csc(SC)n3)c(OC)c2CCC)ccc2c1OC(C(=O)O)CC2 (centres unmarked) [Example 28],–,–,0.19,0.05,–,–
CCCc1c(OCCCOc2ccc(-c3csc(SCc4ccccc4)n3)c(OC)c2CCC)ccc2c1OC(C(=O)O)CC2 (centres unmarked) [Example 29],–,–,0.02,–,–,IA
